Legend:
Aortic ring [1] = assay: Vasorelaxant activity in Sprague-Dawley rat aortic rings assessed as reduction in noradrenaline-induced contractions at 10 uM relative to control; type: functional, Thoracic aorta; parameters: scale not given: the % may be the effect or the level left
Aortic ring [2] = assay: Vasorelaxant activity in Sprague-Dawley rat aortic rings assessed as reduction in noradrenaline-induced contractions at 100 uM relative to control; type: functional, Thoracic aorta; parameters: scale not given: the % may be the effect or the level left
Aortic ring [3] = assay: Vasorelaxant activity in Sprague-Dawley rat aortic rings assessed as reduction in noradrenaline-induced contractions; type: functional, tissue-based; settings: Thoracic aorta, DDE = dose-dependent effect
[4] = Prodrug conversion in sodium phosphate buffer assessed as H2S release in presence of L-cysteine by UV-Vis spectrophotometry; type: ADME
CHO = assay: Cytotoxicity against CHO cells assessed as cell viability at 100 uM after 24 hrs MTT assay; type: toxicity, cell-based, Cricetulus griseus; settings: chinese hamster
Rattus norvegicus [5] = assay: Antihypertensive activity in spontaneous hypertensive rat model assessed as systolic blood pressure at 80 mg/kg, po measured after 1 hr by tail cuff method (reference value: 186.1 +/- 4.6 mmHg); type: functional
Rattus norvegicus [6] = assay: Antihypertensive activity in spontaneous hypertensive rat model assessed as systolic blood pressure at 80 mg/kg, po measured after 2 hr by tail cuff method (reference value: 186.1 +/- 4.6 mmHg); type: functional
Rattus norvegicus [7] = assay: Antihypertensive activity in spontaneous hypertensive rat model assessed as systolic blood pressure at 80 mg/kg, po measured after 4 hr by tail cuff method (reference value: 186.1 +/- 4.6 mmHg); type: functional
Rattus norvegicus [8] = assay: Antihypertensive activity in spontaneous hypertensive rat model assessed as systolic blood pressure at 80 mg/kg, po measured after 6 hr by tail cuff method (reference value: 186.1 +/- 4.6 mmHg); type: functional
Rattus norvegicus [9] = assay: Antihypertensive activity in spontaneous hypertensive rat model assessed as systolic blood pressure at 80 mg/kg, po measured after 8 hr by tail cuff method (reference value: 186.1 +/- 4.6 mmHg); type: functional
Rattus norvegicus [10] = assay: Antihypertensive activity in spontaneous hypertensive rat model assessed as systolic blood pressure at 40 mg/kg, po measured after 1 hr by tail cuff method (reference value: 186.1 +/- 4.6 mmHg); type: functional
Rattus norvegicus [11] = assay: Antihypertensive activity in spontaneous hypertensive rat model assessed as systolic blood pressure at 40 mg/kg, po measured after 2 hr by tail cuff method (reference value: 186.1 +/- 4.6 mmHg); type: functional
Rattus norvegicus [12] = assay: Antihypertensive activity in spontaneous hypertensive rat model assessed as systolic blood pressure at 40 mg/kg, po measured after 4 hr by tail cuff method (reference value: 186.1 +/- 4.6 mmHg); type: functional
Rattus norvegicus [13] = assay: Antihypertensive activity in spontaneous hypertensive rat model assessed as systolic blood pressure at 40 mg/kg, po measured after 6 hr by tail cuff method (reference value: 186.1 +/- 4.6 mmHg); type: functional
Rattus norvegicus [14] = assay: Antihypertensive activity in spontaneous hypertensive rat model assessed as systolic blood pressure at 40 mg/kg, po measured after 8 hr by tail cuff method (reference value: 186.1 +/- 4.6 mmHg); type: functional

Q: What does the source list for `COc1cc2c(cc1OCCCCOc1ccc(C(N)=S)cc1)C(=O)C(C)OC2` (centres undefined)?
A: Activity (Aortic ring [1]): 5.1%; Activity (Aortic ring [2]): 4.3%

Q: For `COc1ccc2c(c1OCCCCOc1ccc(C(N)=S)cc1)COC(C)C2=O` (centres undefined), which Activity (Aortic ring [1]) is on record?
A: 2.9%

Q: And the Activity (Aortic ring [2])?
A: 35.1%

Q: Which Activity (Aortic ring [1]) does the source give for `COc1ccc2c(c1O)COC(C)C2=O` (centres undefined) here?
A: 4.3%

Q: And the Activity (Aortic ring [2])?
A: 50.7%

Q: Which Activity (Aortic ring [1]) does the source give for `COc1ccc2c(c1OCCCCCCOc1ccc(C(N)=S)cc1)COC(C)C2=O` (centres undefined) here?
A: 20%

Q: And the Activity (Aortic ring [2])?
A: 31.1%

Q: Which results are given for `COc1cc2c(cc1OCCCCCCCCOc1ccc(C(N)=S)cc1)C(=O)C(C)OC2` (centres undefined)?
A: Activity (Aortic ring [1]): 19.9%; Activity (Aortic ring [2]): 31.2%

Q: For `COc1ccc2c(c1OCCCCCCCCOc1ccc(C(N)=S)cc1)COC(C)C2=O` (centres undefined), which Activity (Aortic ring [1]) is on record?
A: 25%

Q: What about the Activity (Aortic ring [2]) of the same compound?
A: 56.9%

Q: What about the Activity (Aortic ring [3]) of the same compound?
A: Dde

Q: And the Activity [4]?
A: Active

Q: And the Activity (CHO)?
A: Non-Toxic

Q: With `COc1ccc2c(c1OCCCOc1ccc(C(N)=S)cc1)COC(C)C2=O` (centres undefined) as the compound, how does the Activity (Aortic ring [1]) read?
A: 3.7%

Q: And the Activity (Aortic ring [2])?
A: 15.7%

Q: What does the source list for `COc1cc2c(cc1OCCCCCCCCCCCCOc1ccc(C(N)=S)cc1)C(=O)C(C)OC2` (centres undefined)?
A: Activity (Aortic ring [1]): 2.2%; Activity (Aortic ring [2]): 12.5%

Q: Which Activity (Rattus norvegicus [5]) does the source give for `CC1OCc2c(ccc(O)c2O)C1=O` (racemic) here?
A: 170.9 mmHg

Q: And the Activity (Rattus norvegicus [6])?
A: 165.4 mmHg

Q: What about the Activity (Rattus norvegicus [7]) of the same compound?
A: 151.5 mmHg

Q: And the Activity (Rattus norvegicus [8])?
A: 140.1 mmHg

Q: What about the Activity (Rattus norvegicus [9]) of the same compound?
A: 150.6 mmHg

Q: For `COc1ccc2c(c1OCCOc1ccc(C(N)=S)cc1)COC(C)C2=O` (centres undefined), which Activity (Aortic ring [1]) is on record?
A: 19.8%

Q: What about the Activity (Aortic ring [2]) of the same compound?
A: 31.4%

Q: Which results are given for `COc1cc2c(cc1OCCCCCOc1ccc(C(N)=S)cc1)C(=O)C(C)OC2` (centres undefined)?
A: Activity (Aortic ring [1]): 6.6%; Activity (Aortic ring [2]): 28.2%

Q: What does the source list for `COc1ccc2c(c1OCCCCCOc1ccc(C(N)=S)cc1)COC(C)C2=O` (centres undefined)?
A: Activity (Aortic ring [1]): 30.2%; Activity (Aortic ring [2]): 55.4%; Activity (Aortic ring [3]): Dde; Activity [4]: Active; Activity (CHO): Non-Toxic

Q: With `COc1ccc2c(c1OCCCOc1ccc(-c3cc(=S)ss3)cc1)COC(C)C2=O` (centres undefined) as the compound, how does the Activity (Aortic ring [1]) read?
A: 5.4%

Q: What about the Activity (Aortic ring [2]) of the same compound?
A: 9.2%

Q: With `NC(=S)c1ccc(O)cc1` as the compound, how does the Activity (Aortic ring [1]) read?
A: 1.7%

Q: And the Activity (Aortic ring [2])?
A: 17.3%

Q: With `COc1ccccc1N1CCN(CC(O)COc2cccc3ccccc23)CC1` (centres undefined) [NAFTOPIDIL] as the compound, how does the Activity (Rattus norvegicus [10]) read?
A: 161.4 mmHg

Q: And the Activity (Rattus norvegicus [11])?
A: 148.1 mmHg

Q: And the Activity (Rattus norvegicus [12])?
A: 153.7 mmHg

Q: And the Activity (Rattus norvegicus [13])?
A: 158.2 mmHg

Q: What about the Activity (Rattus norvegicus [14]) of the same compound?
A: 170.5 mmHg

Q: With `COc1cc2c(cc1OCCCCCCOc1ccc(C(N)=S)cc1)C(=O)C(C)OC2` (centres undefined) as the compound, how does the Activity (Aortic ring [1]) read?
A: 49.6%

Q: What about the Activity (Aortic ring [2]) of the same compound?
A: 66.7%

Q: What about the Activity (Aortic ring [3]) of the same compound?
A: Dde

Q: And the Activity (Rattus norvegicus [5])?
A: 170.2 mmHg

Q: What about the Activity (Rattus norvegicus [6]) of the same compound?
A: 137.4 mmHg

Q: What about the Activity (Rattus norvegicus [7]) of the same compound?
A: 142.2 mmHg

Q: And the Activity (Rattus norvegicus [8])?
A: 153.6 mmHg

Q: And the Activity (Rattus norvegicus [9])?
A: 169.4 mmHg

Q: What about the Activity [4] of the same compound?
A: Active

Q: And the Activity (CHO)?
A: Non-Toxic

Q: With `COc1ccc2c(c1OCCCCCCCCCCCCOc1ccc(C(N)=S)cc1)COC(C)C2=O` (centres undefined) as the compound, how does the Activity (Aortic ring [1]) read?
A: 12.6%

Q: What about the Activity (Aortic ring [2]) of the same compound?
A: 25%

Q: For `[Na+].[SH-]` [SODIUM HYDROSULFIDE], which Activity (Aortic ring [1]) is on record?
A: 18.7%

Q: What about the Activity (Aortic ring [2]) of the same compound?
A: 52.9%

Q: What does the source list for `COc1cc2c(cc1OCCCOc1ccc(C(N)=S)cc1)C(=O)C(C)OC2` (centres undefined)?
A: Activity (Aortic ring [1]): 45.4%; Activity (Aortic ring [2]): 61.8%; Activity (Aortic ring [3]): Dde; Activity (CHO): Non-Toxic

Q: Which Activity (Aortic ring [1]) does the source give for `COc1ccc2c(c1OCCOc1ccc(-c3cc(=S)ss3)cc1)COC(C)C2=O` (centres undefined) here?
A: 5.5%

Q: And the Activity (Aortic ring [2])?
A: 18.2%

Q: With `COc1cc2c(cc1O)C(=O)C(C)OC2` (centres undefined) as the compound, how does the Activity (Aortic ring [1]) read?
A: 0.4%

Q: What about the Activity (Aortic ring [2]) of the same compound?
A: 6.5%

From ChEMBL document CHEMBL5143687, “Design, synthesis and biological evaluation of hydrogen sulfide-releasing isochroman-4-one derivatives as new antihypertensive agent candidates” (Bioorg Med Chem, 2022)
